SMILES strings stand for the structures.

Among the data in article PMC3079055 (Archives of biochemistry and biophysics, 2011) are Kd values, retold here.

Test [1] deals with C. albicans CYP51F1 wild-type (Candida albicans, UniProt P10613). Kind of test: Spectral binding titration of purified CYP51F1 wild type.
Test [2] concerns the target C. albicans CYP51F1 F105L mutant (Candida albicans, UniProt P10613, F105L). Kind of test: Spectral binding titration of purified CYP51F1 F105L mutant.
For test [3], the target named is C. albicans CYP51F1 D116E mutant (Candida albicans, UniProt P10613, D116E). Kind of test: Spectral binding titration of purified CYP51F1 D116E mutant.
Test [4] concerns the target C. albicans CYP51F1 Y132H mutant (Candida albicans, UniProt P10613, Y132H). Kind of test: Spectral binding titration of purified CYP51F1 Y132H mutant.
Test [5] addresses C. albicans CYP51F1 R467K mutant (Candida albicans, UniProt P10613, R467K). The test can be described thus: Spectral binding titration of purified CYP51F1 R467K mutant.

`Clc1ccc(COC(Cn2ccnc2)c2ccc(Cl)cc2Cl)cc1` (centres unmarked) [Econazole, econazole]: the Kd in test [1] is 200 ± 40 nM; in test [2], 100 ± 30 nM; in test [3], 140 ± 30 nM; in test [4], 420 ± 60 nM; in test [5], 130 ± 30 nM.

As to `OC(Cn1cncn1)(Cn1cncn1)c1ccc(F)cc1F` [Fluconazole, fluconazole], the Kd in test [1] is 60 ± 10 nM; in test [2], 20 ± 10 nM; in test [3], 30 ± 10 nM; in test [4] it was 150 ± 60 nM; in test [5], 60 ± 10 nM.

Turning to `CCC(C)n1ncn(-c2ccc(N3CCN(c4ccc(OCC5COC(Cn6cncn6)(c6ccc(Cl)cc6Cl)O5)cc4)CC3)cc2)c1=O` (centres unmarked) [Itraconazole, itraconazole], the Kd in test [1] was determined as 190 ± 60 nM; in test [2] it was 160 ± 40 nM; in test [3], 150 ± 30 nM; in test [5] it was 180 ± 40 nM.

As to `CC(=O)N1CCN(c2ccc(OCC3COC(Cn4ccnc4)(c4ccc(Cl)cc4Cl)O3)cc2)CC1` (centres unmarked) [Ketoconazole, ketoconazole], the dissociation constant Kd in test [1] turned out to be 420 ± 80 nM; in test [2], 170 ± 40 nM; in test [3], 430 ± 80 nM; in test [4], 540 ± 70 nM; in test [5] it was 660 ± 130 nM.

For `CC(C)=CCC[C@@H](C)[C@H]1CC[C@@]2(C)C3=C(CC[C@]12C)[C@@]1(C)CC[C@H](O)C(C)(C)[C@@H]1CC3` [lanosterol, Lanosterol], binding in test [1] was put at a Kd of 6700 nM.
